Literature values, collected in patent US7713351B2, “Method for crystallization of proteins using polysaccharides” (Macrocrystal Oy, priority 2004, dated 2010).

Details: room temperature; CRC Handbook of Chemistry and Physics

## OCC(O)CO [glycerol]
  Viscosity: 934 mPa s
